# The supplement of paper PMC4628005
# Experiments:
# Settings in all cases: drug exposure time: 96 h
# Sorafenib = compound: CNC(=O)c1cc(Oc2ccc(NC(=O)Nc3ccc(Cl)c(C(F)(F)F)c3)cc2)ccn1 [Sorafenib]
# Method: (§1)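 Breast cancer cell lines were grown in RPMI 1640 with 10% FBS on collagen I-coated 96-well plates and treated for 96 h (from 24 h after seeding) with 12 dilutions per drug, in triplicate. Growth was read by sulforhodamine B total-protein staining (absorbance 570 nm) relative to diluent control, and IC50 was calculated. The top dose was 1e-5 M for most drugs; Bortezomib went to 2e-5 M and Sirolimus and 17-AAG to 2e-6 M[…].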
# Lapatinib = compound: CS(=O)(=O)CCNCc1ccc(-c2ccc3ncnc(Nc4ccc(OCc5cccc(F)c5)c(Cl)c4)c3c2)o1 [Lapatinib]
# Method: as §1
# Gefitinib = compound: COc1cc2ncnc(Nc3ccc(F)c(Cl)c3)c2cc1OCCCN1CCOCC1 [Gefitinib]
# Method: as §1
# Decitabine = compound: Nc1ncn([C@H]2C[C@H](O)[C@@H](CO)O2)c(=O)n1 [Decitabine]
# Method: as §1
# Cisplatin = compound: N.N.[Cl][Pt][Cl] [Cisplatin]
# Method: as §1
# Tamoxifen = compound: CC/C(=C(\c1ccccc1)c1ccc(OCCN(C)C)cc1)c1ccccc1 [Tamoxifen]
# Method: as §1
# Vandetanib = compound: COc1cc2/c(=N/c3ccc(Br)cc3F)nc[nH]c2cc1OCC1CCN(C)CC1 [Vandetanib]
# Method: as §1
# Erlotinib = compound: C#Cc1cccc(Nc2ncnc3cc(OCCOC)c(OCCOC)cc23)c1 [Erlotinib]
# Method: as §1
# Belinostat = compound: O=C(/C=C/c1cccc(S(=O)(=O)Nc2ccccc2)c1)NO [Belinostat]
# Method: as §1
# Serdemetan = compound: c1ccc2c(CCNc3ccc(Nc4ccncc4)cc3)c[nH]c2c1 [Serdemetan]
# Method: as §1
# Sunitinib = compound: CCN(CC)CCNC(=O)c1c(C)[nH]c(/C=C2\C(=O)Nc3ccc(F)cc32)c1C [Sunitinib]
# Method: as §1
# Nutlin-3 = compound: COc1ccc(C2=N[C@@H](c3ccc(Cl)cc3)[C@@H](c3ccc(Cl)cc3)N2C(=O)N2CCNC(=O)C2)c(OC(C)C)c1 [Nutlin-3]
# Method: as §1
# Vorinostat = compound: O=C(CCCCCCC(=O)Nc1ccccc1)NO [Vorinostat]
# Method: as §1
# Tipifarnib = compound: Cn1cncc1[C@@](N)(c1ccc(Cl)cc1)c1ccc2c(c1)c(-c1cccc(Cl)c1)cc(=O)n2C [Tipifarnib]
# Method: as §1
# Azacitidine = compound: Nc1ncn([C@@H]2O[C@H](CO)[C@@H](O)[C@H]2O)c(=O)n1 [Azacitidine]
# Method: as §1
# ARQ197 = compound: O=C1NC(=O)[C@@H](c2cn3c4c(cccc24)CCC3)[C@@H]1c1c[nH]c2ccccc12 [ARQ197]
# Method: as §1
# Paclitaxel = compound: CC(=O)O[C@H]1C(=O)[C@@]2(C)[C@H]([C@H](OC(=O)c3ccccc3)[C@]3(O)C[C@H](OC(=O)[C@H](O)[C@@H](NC(=O)c4ccccc4)c4ccccc4)C(C)=C1C3(C)C)[C@]1(OC(C)=O)CO[C@@H]1C[C@@H]2O [Paclitaxel]
# Method: as §1
# 5-Fluorouracil = compound: O=c1[nH]cc(F)c(=O)[nH]1 [5-Fluorouracil]
# Method: as §1
# Mitoxantrone = compound: O=C1c2c(O)ccc(O)c2C(=O)c2c(NCCNCCO)ccc(NCCNCCO)c21 [Mitoxantrone]
# Method: as §1
# Dasatinib = compound: Cc1nc(Nc2ncc(C(=O)Nc3c(C)cccc3Cl)s2)cc(N2CCN(CCO)CC2)n1 [Dasatinib]
# Method: as §1
# Methotrexate = compound: CN(Cc1cnc2nc(N)nc(N)c2n1)c1ccc(C(=O)N[C@@H](CCC(=O)O)C(=O)O)cc1 [Methotrexate]
# Method: as §1
# Panobinostat = compound: Cc1[nH]c2ccccc2c1CCNCc1ccc(/C=C/C(=O)NO)cc1 [Panobinostat]
# Method: as §1
# Quisinostat = compound: Cn1cc(CNCC2CCN(c3ncc(C(=O)NO)cn3)CC2)c2ccccc21 [Quisinostat]
# Method: as §1
# Doxorubicin = compound: COc1cccc2c1C(=O)c1c(O)c3c(c(O)c1C2=O)C[C@@](O)(C(=O)CO)C[C@@H]3O[C@H]1C[C@H](N)[C@H](O)[C@H](C)O1 [Doxorubicin]
# Method: as §1
# Brivanib = compound: Cc1cc2c(F)c(Oc3ncnn4cc(OC[C@@H](C)O)c(C)c34)ccc2[nH]1 [Brivanib]
# Method: as §1
# MI-219 = compound: CC(C)(C)C[C@H]1N[C@@H](C(=O)NCC[C@H](O)CO)[C@H](c2cccc(Cl)c2)[C@@]12C(=O)Nc1cc(Cl)c(F)cc12 [MI-219]
# Method: as §1
# Docetaxel = compound: CC(=O)O[C@@]12CO[C@@H]1C[C@H](O)[C@@]1(C)C(=O)[C@H](O)C3=C(C)[C@@H](OC(=O)[C@H](O)[C@@H](NC(=O)OC(C)(C)C)c4ccccc4)C[C@@](O)([C@@H](OC(=O)c4ccccc4)[C@H]21)C3(C)C [Docetaxel]
# Method: as §1
# 17-AAG = compound: C=CCNC1=C2C[C@@H](C)C[C@H](OC)[C@H](O)[C@@H](C)/C=C(\C)[C@H](OC(N)=O)[C@@H](OC)/C=C\C=C(/C)C(=O)NC(=CC1=O)C2=O [17-AAG]
# Method: (§2)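 Same SRB 96 h IC50 screen on breast cancer cell lines (RPMI 1640 + 10% FBS, collagen I-coated 96-well plates, triplicates, 12 dilutions), for drugs with a different dose range: Bortezomib up to 2e-5 M; Sirolimus and 17-AAG up to 2e-6 M. Sirolimus values at the 2e-6 M top dose are censored.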
# Sirolimus = compound: CO[C@H]1C[C@@H]2CC[C@@H](C)[C@@](O)(O2)C(=O)C(=O)N2CCCC[C@H]2C(=O)O[C@H]([C@H](C)C[C@@H]2CC[C@@H](O)[C@H](OC)C2)CC(=O)[C@H](C)/C=C(\C)[C@@H](O)[C@@H](OC)C(=O)[C@H](C)C[C@H](C)/C=C/C=C/C=C/1C [Sirolimus]
# Method: as §2
# Bortezomib = compound: CC(C)C[C@H](NC(=O)[C@H](Cc1ccccc1)NC(=O)c1cnccn1)B(O)O [Bortezomib]
# Method: as §2
Test System,IC50 (SRB growth assay) (Sorafenib) [nM],IC50 (SRB growth assay) (Lapatinib) [nM],IC50 (SRB growth assay) (Gefitinib) [nM],IC50 (SRB growth assay) (Decitabine) [nM],IC50 (SRB growth assay) (Cisplatin) [nM],IC50 (SRB growth assay) (Tamoxifen) [nM],IC50 (SRB growth assay) (Vandetanib) [nM],IC50 (SRB growth assay) (Erlotinib) [nM],IC50 (SRB growth assay) (Belinostat) [nM],IC50 (SRB growth assay) (Serdemetan) [nM],IC50 (SRB growth assay) (Sunitinib) [nM],IC50 (SRB growth assay) (Nutlin-3) [nM],IC50 (SRB growth assay) (Vorinostat) [nM],IC50 (SRB growth assay) (Tipifarnib) [nM],IC50 (SRB growth assay) (Azacitidine) [nM],IC50 (SRB growth assay) (ARQ197) [nM],IC50 (SRB growth assay) (Paclitaxel) [nM],IC50 (SRB growth assay) (5-Fluorouracil) [nM],IC50 (SRB growth assay) (Mitoxantrone) [nM],IC50 (SRB growth assay) (Dasatinib) [nM],IC50 (SRB growth assay) (Methotrexate) [nM],IC50 (SRB growth assay) (Panobinostat) [nM],IC50 (SRB growth assay) (Quisinostat) [nM],IC50 (SRB growth assay) (Doxorubicin) [nM],IC50 (SRB growth assay) (Brivanib) [nM],IC50 (SRB growth assay) (MI-219) [nM],IC50 (SRB growth assay) (Docetaxel) [nM],IC50 (SRB growth assay) (17-AAG) [nM],IC50 (SRB growth assay) (Sirolimus) [nM],IC50 (SRB growth assay) (Bortezomib) [nM]
HCC 1954,5510,182,435,1650,> 10000,5420,894,361,142,1280,5340,> 10000,452,449,807,205,1.37,2490,8.2,2290,10.2,9.53,7.36,11.1,5340,> 10000,0.37,26.4,0.0308,5.29
Hs 578T,6640,> 10000,> 10000,> 10000,> 10000,> 10000,5710,> 10000,543,2550,7020,> 10000,999,3930,5800,696,1.88,> 10000,16.8,1360,26,18.5,12.7,57.7,> 10000,> 10000,0.796,49.4,0.946,5.74
MCF 7,5100,4000,> 10000,472,> 10000,5690,> 10000,> 10000,419,1690,4470,2010,783,28.6,3730,260,1.79,2210,14.8,> 10000,13.9,12,5.75,8.94,> 10000,815,1.12,93.4,58.2,8.35
MDA-MB 361,5770,499,4600,> 10000,> 10000,8840,4370,3870,469,3950,> 10000,> 10000,723,2210,> 10000,417,4.81,> 10000,25.9,6020,729,8.08,3.95,67,> 10000,> 10000,1.41,41.4,0.259,6.68
